Test results as given in patent US20060128762A1, “Medicinal composition and method for treating malignant tumor and utilization thereof” (D.Western Therapeutics Institute, priority 2002, published 2006).

Legend:
[1] = system: Murine Monocytic Leukemia P388; assay: Antitumor effect on P388 murine monocytic leukemia transplanted into mouse (survival); type: in vivo; set-up: MST (median survival time): unit not given here; conditions: for MST (median survival time) / Survival number on day 50 / T/C (%): N = 6; for survival rate on day 5: administered alone
Experimental: Monocytic leukemia cell line P388 was purchased from Japanese Foundation for Cancer Research, Cancer Chemotherapy Center. The cryopreserved tumor was transplanted intraperitoneally into DBA/2 mouse (Japan SLC, Inc.). When the abdominal bloating was observed, ascites was removed and subjected to the test.
Compound 2 was weighed and ground down in an agate motor. It was then suspended slowly in the motor by adding 0.5% aqueous methylcellulose solution (M.C.) step by step to obtain 10 mg/ml suspension. The suspension was further diluted with M.C. to obtain a normal concentration and stored at 4° C. CDDP was dissolved and diluted with physiological saline. Immediately after preparation, the CDDP solution was subjected to test.
Male 4-week-old DBA/2 mice (n=10, 2 mice for the present test) and male 4-week-old CDF1 mice (DBA/2×BALB/c) (n=156) were purchased from Japan SLC, Inc., and used six animals per group. Animals were kept in a chamber maintained at room temperature of 21 to 25° C. and humidity of 45-65% with a given lighting time intervals (light period: 7:00 to 19:00; dark period: 19:00 to 7:00) and allowed to access freely to feed (F-2, Funabashi Nojo) and tap water. The animals purchased were used in the test after subjecting to taming and quarantine for 1 week.
The cryopreserved P388 cell lines were transplanted intraperitoneally into DBA/2 mouse. When the abdominal bloating was observed, ascites containing cancer cells were removed. The ascites was diluted with phosphate-buffered physiological saline (PBS, pH7.4) until the cell concentration became 5×10^6 cells/ml. The resultant solution (0.2 ml) was transplanted intraperitoneally into CDF1 mouse (1×10^6 cells/mouse). The drug was administered to mouse (0.1 ml/10 g body weight) on and after the next day of transplantation.
Compound 2 was administered orally and CDDP intraperitoneally. Animals of control group were untreated because of diversity of administration route and complexity of administration schedule.
The administration was started on the next day (day 1) of transplantation of tumor according to the protocol shown in Table 1, i.e., day 1; day 2; or day 1 and 2.

[2] = Stability of the suspension in 0.5% aqueous methylcellulose solution; type: physicochemical; conditions: suspension in 0.5% aqueous methylcellulose solution (M.C.), in a cold place
Experimental: Compound 2 was weighed and ground down in an agate motor. It was then suspended slowly in the motor by adding 0.5% aqueous methylcellulose solution (M.C.) step by step to obtain 10 mg/ml suspension. The suspension was further diluted with M.C. to obtain a normal concentration and stored at 4° C. CDDP was dissolved and diluted with physiological saline. Immediately after preparation, the CDDP solution was subjected to test. It is assured that the suspension of Compound 2 in M.C. is homogeneous and stable for 14 days in a cold place.

[3] = Compound 2 25 mg/kg p.o on day 1
[4] = Compound 2 25 mg/kg p.o on day 2
[5] = Compound 2 50 mg/kg p.o on day 1
[6] = Compound 2 50 mg/kg p.o on day 2
[7] = Compound 2 100 mg/kg p.o on day 1
[8] = Compound 2 100 mg/kg p.o on day 2

Q: Which results are given for `N.N.[Cl][Pt][Cl]` [CDDP, cis-platinum (II) diamine chloride, reference compound]?
A: MST (median survival time) ([1]; CDDP 2.5 mg/kg i.p on day 1): 14.5; Survival number on day 50 ([1]; CDDP 2.5 mg/kg i.p on day 1): 0; T/C (%) ([1]; CDDP 2.5 mg/kg i.p on day 1): 145%; MST (median survival time) ([1]; CDDP 2.5 mg/kg i.p on day 2): 15.5; Survival number on day 50 ([1]; CDDP 2.5 mg/kg i.p on day 2): 0; T/C (%) ([1]; CDDP 2.5 mg/kg i.p on day 2): 155%; MST (median survival time) ([1]; CDDP 5 mg/kg i.p on day 1): 17; Survival number on day 50 ([1]; CDDP 5 mg/kg i.p on day 1): 0; T/C (%) ([1]; CDDP 5 mg/kg i.p on day 1): 170%; MST (median survival time) ([1]; CDDP 5 mg/kg i.p on day 2): 17; Survival number on day 50 ([1]; CDDP 5 mg/kg i.p on day 2): 0; T/C (%) ([1]; CDDP 5 mg/kg i.p on day 2): 170%; MST (median survival time) ([1]; CDDP 10 mg/kg i.p on day 1): 17; Survival number on day 50 ([1]; CDDP 10 mg/kg i.p on day 1): 0; T/C (%) ([1]; CDDP 10 mg/kg i.p on day 1): 170%; MST (median survival time) ([1]; CDDP 10 mg/kg i.p on day 2): 17; Survival number on day 50 ([1]; CDDP 10 mg/kg i.p on day 2): 0; T/C (%) ([1]; CDDP 10 mg/kg i.p on day 2): 170%; survival rate on day 5 [1]: not observed

Q: For `COc1ccc(S(=O)(=O)N(C(C)=O)c2ccccc2/C=C/c2cc[n+]([O-])cc2)cc1` [Compound 2, (E)-4-[2-[2-[N-acetyl-N-[(p-methoxyphenyl)sulfonyl]-amino]phenyl]ethenyl]pyridine 1-oxide], which “MST (median survival time)” value [1, 3] is on record?
A: 12.5

Q: And the “Survival number on day 50” value [1, 3]?
A: 0

Q: What about the “T/C (%)” value [1, 3] of the same compound?
A: 125%

Q: What about the “MST (median survival time)” value [1, 4] of the same compound?
A: 13

Q: What about the “Survival number on day 50” value [1, 4] of the same compound?
A: 0

Q: What about the “T/C (%)” value [1, 4] of the same compound?
A: 130%

Q: What about the “MST (median survival time)” value [1, 5] of the same compound?
A: 13

Q: What about the “Survival number on day 50” value [1, 5] of the same compound?
A: 0

Q: What about the “T/C (%)” value [1, 5] of the same compound?
A: 130%

Q: And the “MST (median survival time)” value [1, 6]?
A: 13

Q: And the “Survival number on day 50” value [1, 6]?
A: 0

Q: And the “T/C (%)” value [1, 6]?
A: 130%

Q: And the “MST (median survival time)” value [1, 7]?
A: 16.5

Q: And the “Survival number on day 50” value [1, 7]?
A: 0

Q: What about the “T/C (%)” value [1, 7] of the same compound?
A: 165%

Q: And the “MST (median survival time)” value [1, 8]?
A: 15

Q: And the “Survival number on day 50” value [1, 8]?
A: 0

Q: What about the “T/C (%)” value [1, 8] of the same compound?
A: 150%

Q: What about the “survival rate on day 5” value [1] of the same compound?
A: not observed

Q: What about the “time for which the suspension in M.C. is homogeneous and stable” value [2] of the same compound?
A: 14 days
